Reference: patent publication US20240132513A1, “BENZAZEPINE DERIVATIVES, COMPOSITIONS, AND METHODS FOR TREATING COGNITIVE IMPAIRMENT” (AGENEBIO, INC., priority 2022, published 2024)
Where two headings read alike, the source gives them in different places.

Key:
α5β3γ2 GABAA R = α5β3γ2 GABAA R (Homo sapiens, UniProt P18507+P31644); assay: Binding activity on GABAA R: inhibition of [3H]Ro15-1788 binding, α5 containing receptor
Summary of the method: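 Displacement of [3H]Ro15-1788 (flumazenil) measured at 4 °C over 1 h using 0.2 mg/ml membrane protein from Ltk cells carrying α5β3γ2 GABAA receptors, expression induced with 0.5 μM dexamethasone for 1 day; buffer pH 7.4 KH2PO4/EDTA/KCl. 10 μM diazepam defined nonspecific binding; filter-trapped radioactivity counted, in triplicate.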

GABAA R (α5β2γ2) = target: T1, GABAA R (α5β2γ2) (Homo sapiens, UniProt P18507+P31644); assay: Positive allosteric modulator activity: potentiation of EC20 GABA current in oocytes; format: cell-based
T1 construct: expressed in transfected cells
Description: On day 1, 1 ng/32 nL of GABAA α5β2γ2 cDNA was injected into one oocyte. Test starts on day 2. The cDNA injected to the oocytes was a mix of alpha, beta and gamma, their ratio is 1:1:10 (by weight) and the total weight of the mixed 3 subunits to be injected in one oocyte was 1 ng in 32 nl volume. The injected oocytes can also be tested on day 3. In such case, the cDNA amount injected to the oocytes should be reduced by 20%.
Compounds of the present disclosure were tested using the following procedures.
8 oocytes were placed in 8 chambers of OpusXpress and superfused with Modified Barth's Saline (MBS) at 3 mL/min. Glass electrodes back-filled with 3M KCl (0.5-3 megaohms) were used. Membrane potential of oocytes was voltage-clamped at −60 mV. • 2).
Control Test (Diazepam or Methyl 3,5-Diphenylpyridazine-4-Carboxylate) • 1). New oocytes was used to run new test. • 2). […] Oocytes were washed with MBS for 5-10 min. • 4). […] Itest was divided by IGABA to obtain potentiation (%).
Test Compounds at Multiple Doses • 1). Repeat the above steps 1), 2) and 3) in the control test. • 2). […] Divide Itest by IGABA to obtain potentiation (%). • 3). Discard all tested oocytes, new oocytes were used and the above steps 1) and 2) were repeated to test second concentration of the same compound. Each oocyte was used for only one concentration test for a single test compound. The steps were repeated for other test compounds.

[1] = read-out: GABA α5 Functional Data: potentiation, @ 100 nM, EC20 GABA, ranges of the column heads
[2] = ranges of the column heads, [3H]Ro15-1788, Ltk cell membranes
[3] = read-out: GABA α5 Functional Data: potentiation

α5β3γ2 GABAA R, sequence (P31644 32-462): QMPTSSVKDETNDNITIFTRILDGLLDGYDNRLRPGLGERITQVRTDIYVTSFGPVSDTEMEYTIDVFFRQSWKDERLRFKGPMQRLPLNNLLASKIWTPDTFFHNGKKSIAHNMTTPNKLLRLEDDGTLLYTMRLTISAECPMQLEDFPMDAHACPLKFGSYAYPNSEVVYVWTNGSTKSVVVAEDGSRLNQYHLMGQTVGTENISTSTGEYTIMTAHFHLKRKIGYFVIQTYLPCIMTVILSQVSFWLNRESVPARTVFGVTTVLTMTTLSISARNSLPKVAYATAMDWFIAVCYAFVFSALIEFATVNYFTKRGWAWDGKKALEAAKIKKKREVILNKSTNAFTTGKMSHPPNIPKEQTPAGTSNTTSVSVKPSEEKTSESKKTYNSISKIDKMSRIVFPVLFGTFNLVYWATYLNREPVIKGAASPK
α5β3γ2 GABAA R, sequence (P28472 26-473 partner): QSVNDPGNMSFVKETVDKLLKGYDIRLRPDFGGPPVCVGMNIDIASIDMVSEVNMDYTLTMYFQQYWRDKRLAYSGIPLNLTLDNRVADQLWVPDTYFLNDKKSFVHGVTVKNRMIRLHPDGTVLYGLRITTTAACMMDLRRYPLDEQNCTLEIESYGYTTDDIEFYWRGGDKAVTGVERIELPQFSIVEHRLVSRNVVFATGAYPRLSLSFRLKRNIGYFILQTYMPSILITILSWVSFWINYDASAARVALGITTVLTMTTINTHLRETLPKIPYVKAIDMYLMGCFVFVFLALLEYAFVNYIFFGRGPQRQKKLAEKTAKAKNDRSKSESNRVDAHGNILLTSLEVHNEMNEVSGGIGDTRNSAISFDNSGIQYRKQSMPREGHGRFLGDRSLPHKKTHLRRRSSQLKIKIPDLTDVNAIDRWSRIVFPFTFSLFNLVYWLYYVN
α5β3γ2 GABAA R, sequence (P18507 40-475): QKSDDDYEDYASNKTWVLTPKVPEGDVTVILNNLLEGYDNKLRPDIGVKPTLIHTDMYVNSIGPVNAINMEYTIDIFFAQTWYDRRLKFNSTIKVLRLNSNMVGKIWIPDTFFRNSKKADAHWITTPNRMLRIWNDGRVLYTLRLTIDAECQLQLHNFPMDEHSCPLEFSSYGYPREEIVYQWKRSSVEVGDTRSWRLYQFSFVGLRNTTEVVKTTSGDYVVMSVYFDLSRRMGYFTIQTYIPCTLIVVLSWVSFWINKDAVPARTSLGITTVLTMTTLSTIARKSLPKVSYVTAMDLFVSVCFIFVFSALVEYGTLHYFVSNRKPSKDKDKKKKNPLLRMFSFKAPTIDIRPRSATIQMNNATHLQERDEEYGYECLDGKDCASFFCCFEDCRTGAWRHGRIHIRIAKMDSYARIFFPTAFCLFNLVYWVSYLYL
T1 sequence (P31644 32-462): as the sequence (P31644 32-462) above
T1 sequence (P47870 25-512 partner limits assumed): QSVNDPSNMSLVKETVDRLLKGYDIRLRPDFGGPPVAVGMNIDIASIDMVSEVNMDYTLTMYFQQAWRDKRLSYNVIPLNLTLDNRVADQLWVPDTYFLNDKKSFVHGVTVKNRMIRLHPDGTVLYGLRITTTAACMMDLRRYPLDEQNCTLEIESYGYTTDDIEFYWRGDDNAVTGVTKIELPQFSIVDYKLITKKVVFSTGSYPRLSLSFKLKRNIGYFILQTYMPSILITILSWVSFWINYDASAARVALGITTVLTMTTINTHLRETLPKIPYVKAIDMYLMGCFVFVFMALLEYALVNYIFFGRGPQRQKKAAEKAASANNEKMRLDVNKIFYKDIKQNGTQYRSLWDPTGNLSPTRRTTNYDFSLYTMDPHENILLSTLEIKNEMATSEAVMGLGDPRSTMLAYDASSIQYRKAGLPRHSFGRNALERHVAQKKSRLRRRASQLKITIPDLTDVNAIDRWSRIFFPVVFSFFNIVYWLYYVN
T1 sequence (P18507 40-475): as the sequence (P18507 40-475) above

SMILES | Ki (α5β3γ2 GABAA R) [µM] | activation at 0.1 µM (GABAA R (α5β2γ2); [1]) [%] | Ki (α5β3γ2 GABAA R; [2]) [µM] | activation at 0.1 µM (GABAA R (α5β2γ2); [3]) [%]
COc1ccc2c(c1)-c1nn(C)cc1Cc1c(-c3noc(C4COC4)n3)ncn1-2 [Compound 202] | < 0.1 | 20 to 50 | – | –
COc1ccc2c(c1)-c1c(cnn1CC1CCOC1)Cc1c(-c3nc(C4CC4)no3)ncn1-2 (stereo not shown) [Compound 249] | < 0.1 | 5 to 20 | – | –
CC(C)c1noc(-c2ncn3c2Cc2cn(CCN(C)C)nc2-c2cc(Cl)ccc2-3)n1 [Compound 112] | < 0.1 | 5 to 20 | – | –
CC(C)c1noc(-c2ncn3c2Cc2cn[nH]c2-c2cc(Cl)ccc2-3)n1 [Compound 34] | < 0.1 | 20 to 50 | – | –
CCn1cc2c(n1)-c1cc(Cl)ccc1-n1cnc(-c3noc(C4COCCO4)n3)c1C2 (stereo not shown) [Compound 195] | < 0.1 | 5 to 20 | – | –
Cn1cc2c(n1)-c1cc(Cl)ccc1-n1cnc(-c3cnn(Cc4ccccn4)c3)c1C2 [Compound 190] | < 0.1 | 20 to 50 | – | –
COc1ccc2c(c1)-c1nn(CC3COC3)cc1Cc1c(-c3noc(COCC(F)(F)F)n3)ncn1-2 [Compound 314] | < 0.1 | 5 to 20 | – | –
COc1ccc2c(c1)-c1nn(CC3COC3)cc1Cc1c(-c3noc(C(C)(C)OC)n3)ncn1-2 [Compound 312] | < 0.1 | 5 to 20 | – | –
Clc1ccc2c(c1)-c1[nH]ncc1Cc1c(-c3nc(C4CCOC4)no3)ncn1-2 (stereo not shown) [Compound 108] | < 0.1 | 20 to 50 | – | –
Cn1cc2c(n1)-c1cc(Cl)ccc1-n1cnc(-c3nc([C@H]4CCOC4)no3)c1C2 [Compound 253] | < 0.1 | 5 to 20 | – | –
CCn1cc2c(n1)-c1cc(OC)ccc1-n1cnc(-c3nc(CN4CCCC4)no3)c1C2 [Compound 267] | < 0.1 | 5 to 20 | – | –
Cn1cc2c(n1)-c1cc(Cl)ccc1-n1cnc(-c3nnc(C(F)(F)F)o3)c1C2 [Compound 210] | < 0.1 | 20 to 50 | – | –
COCCn1cc2c(n1)-c1cc(OC)ccc1-n1cnc(-c3noc(C(C)C)n3)c1C2 [Compound 110] | < 0.1 | 20 to 50 | – | –
FC(F)(F)COCc1nc(-c2ncn3c2Cc2cn(CC4CCCO4)nc2-c2cc(Cl)ccc2-3)no1 (stereo not shown) [Compound 309] | < 0.1 | 5 to 20 | – | –
CCn1cc2c(n1)-c1cc(OC)ccc1-n1cnc(-c3nc(COC)no3)c1C2 [Compound 236] | < 0.1 | 20 to 50 | – | –
COc1ccc2c(c1)-c1nn(C)cc1Cc1c(-c3nnc(C(F)(F)F)o3)ncn1-2 [Compound 289] | < 0.1 | 5 to 20 | – | –
COc1ccc2c(c1)-c1c(cnn1C)Cc1c(-c3noc(C4(F)CC4)n3)ncn1-2 [Compound 206] | < 0.1 | 20 to 50 | – | –
COc1ccc2c(c1)-c1nn(C)cc1Cc1c(-c3noc(C(C)(C)C)n3)ncn1-2 [Compound 146] | < 0.1 | 5 to 20 | – | –
Cc1nc(-c2ncn3c2Cc2cn[nH]c2-c2cc(Cl)ccc2-3)no1 [Compound 86] | < 0.1 | 5 to 20 | – | –
COc1ccc2c(c1)-c1nn(CC3COC3)cc1Cc1c(-c3nc(C4CC4)no3)ncn1-2 [Compound 226] | – | – | < 0.1 | 5 to 20
COc1ccc2c(c1)-c1[nH]ncc1Cc1c(-c3nc(C4CCOC4)no3)ncn1-2 (stereo not shown) [Compound 100] | < 0.1 | 5 to 20 | – | –
COCCn1cc2c(n1)-c1cc(Cl)ccc1-n1cnc(-c3nc(C(C)C)no3)c1C2 [Compound 111] | – | – | < 0.1 | 20 to 50
COCc1nc(-c2ncn3c2Cc2cn(C)nc2-c2cc(Cl)ccc2-3)no1 [Compound 155] | < 0.1 | 20 to 50 | – | –
Cn1cc2c(n1)-c1cc(Cl)ccc1-n1cnc(-c3noc(COC(C)(C)C)n3)c1C2 [Compound 215] | < 0.1 | 20 to 50 | – | –

SMILES | Ki (α5β3γ2 GABAA R) [µM] | activation at 0.1 µM (GABAA R (α5β2γ2); [1]) [%] | Ki (α5β3γ2 GABAA R; [2]) [µM] | activation at 0.1 µM (GABAA R (α5β2γ2); [3]) [%]
Cc1nc(-c2ncn3c2Cc2cn(C)nc2-c2cc(Cl)ccc2-3)no1 [Compound 140] | < 0.1 | 5 to 20 | – | –
COc1ccc2c(c1)-c1nn(C)cc1Cc1c(-c3cnn(Cc4ccccn4)c3)ncn1-2 [Compound 282] | < 0.1 | 5 to 20 | – | –
Cc1noc(-c2ncn3c2Cc2cn[nH]c2-c2cc(Cl)ccc2-3)n1 [Compound 33] | < 0.1 | 20 to 50 | – | –
Clc1ccc2c(c1)-c1nn(Cc3ccccn3)cc1Cc1c(-c3nc(C4CC4)no3)ncn1-2 [Compound 135] | < 0.1 | 5 to 20 | – | –
FC(F)(F)c1nc(-c2ncn3c2Cc2cn[nH]c2-c2cc(Cl)ccc2-3)no1 [Compound 85] | < 0.1 | 5 to 20 | – | –
COCCn1cc2c(n1)-c1cc(Cl)ccc1-n1cnc(-c3nc(C4CC4)no3)c1C2 [Compound 128] | < 0.1 | 5 to 20 | – | –
COc1ccc2c(c1)-c1nn(C)cc1Cc1c(-c3nc(C(F)(F)F)no3)ncn1-2 [Compound 119] | < 0.1 | 5 to 20 | – | –
COc1ccc2c(c1)-c1nn(C(C)C)cc1Cc1c(-c3noc(C(C)C)n3)ncn1-2 [Compound 114] | < 0.1 | 20 to 50 | – | –
Cn1cc2c(n1)-c1cc(Cl)ccc1-n1cnc(-c3noc(COC4CCCC4)n3)c1C2 [Compound 211] | < 0.1 | 20 to 50 | – | –
Cn1cc2c(n1)-c1cc(Cl)ccc1-n1cnc(-c3nc(COC4COC4)co3)c1C2 [Compound 285] | < 0.1 | > 50 | – | –
COc1ccc2c(c1)-c1nn(CC3CCCO3)cc1Cc1c(-c3noc(COC(C)C)n3)ncn1-2 (stereo not shown) [Compound 301] | < 0.1 | 20 to 50 | – | –
Cn1cc2c(n1)-c1cc(Cl)ccc1-n1cnc(-c3nc(C4CCOC4)no3)c1C2 (stereo not shown) [Compound 134] | < 0.1 | 20 to 50 | – | –
CC(C)c1noc(-c2ncn3c2Cc2cn(Cc4cccnc4)nc2-c2cc(Cl)ccc2-3)n1 [Compound 98] | – | – | < 0.1 | 5 to 20
COc1ccc2c(c1)-c1nn(CC3CCCO3)cc1Cc1c(-c3noc(COCC(F)(F)F)n3)ncn1-2 (stereo not shown) [Compound 292] | < 0.1 | 5 to 20 | – | –
COc1ccc2c(c1)-c1nn(C)cc1Cc1c(-c3noc([C@@H]4CCOC4)n3)ncn1-2 [Compound 256] | < 0.1 | 5 to 20 | – | –
CC(C)OCc1noc(-c2ncn3c2Cc2cn(C)nc2-c2cc(Cl)ccc2-3)n1 [Compound 242] | < 0.1 | 20 to 50 | – | –
COc1ccc2c(c1)-c1nn(C)cc1Cc1c(-c3noc([C@@H]4CCCO4)n3)ncn1-2 [Compound 259] | < 0.1 | 5 to 20 | – | –
Cc1nnc(-c2ncn3c2Cc2cn(C)nc2-c2cc(Cl)ccc2-3)o1 [Compound 209] | < 0.1 | 20 to 50 | – | –
COCc1coc(-c2ncn3c2Cc2cn(C)nc2-c2cc(Cl)ccc2-3)n1 [Compound 284] | – | – | < 0.1 | > 50
Cn1cc2c(n1)-c1cc(Cl)ccc1-n1cnc(-c3nc(C4CCOCC4)no3)c1C2 [Compound 219] | < 0.1 | 5 to 20 | – | –
Clc1ccc2c(c1)-c1nn(CC3CCCO3)cc1Cc1c(-c3cnn(Cc4ccccc4)c3)ncn1-2 (stereo not shown) [Compound 230] | < 0.1 | 5 to 20 | – | –
COc1ccc2c(c1)-c1[nH]ncc1Cc1c(-c3nc(C(F)(F)F)no3)ncn1-2 [Compound 45] | < 0.1 | 20 to 50 | – | –
COc1ccc2c(c1)-c1[nH]ncc1Cc1c(-c3noc(COCC(F)(F)F)n3)ncn1-2 [Compound 174] | < 0.1 | 20 to 50 | – | –
